The values below come from patent publication US20240189283A1, “L-ERGOTHIONEINE-CONTAINING COMPOSITION” (NAGASE & CO., LTD., priority 2021, published 2024).

Like-named read-outs stand apart in the source and are kept apart here.

The nature of data set [1]: HPLC area of SRH, SRH dehydrated dimer and EGT before and 4 days after concentration (Reference Example). The note with it: sample with 15 parts by mass SRH per 100 parts EGT, PDA 210 nm; for HPLC area, 4 days after concentration: concentrated at 30° C., left at room temperature 4 days. The class given is physicochemical. Here is the method: In an SRH 0.108 w/w % aqueous solution (1 mL) was dissolved 7.1 mg of EGT (manufactured by Tetrahedron) to prepare a sample having 15 parts by mass of SRH with respect to 100 parts by mass of EGT.
For HPLC analysis, 100 μL of the sample was diluted 10 times with water. The remaining 900 μL was concentrated under reduced pressure using an evaporator at 30° C. After the mixture was left to stand at room temperature for 4 days, the mixture was dissolved in 0.9 mL of water. For HPLC analysis, 100 μL of the solution was diluted 10 times with water.
HPLC analysis was performed under the following conditions.
Column: YMC-Pack ODS-AQ S-5 μM, 12 nm, 250×4.6 mm I.D.
Flow rate: 0.5 mL/min, Temperature: 30° C.
Eluent: 0.1% aqueous formic acid solution
Retention time: SRH: around 6.6 minutes; SRH dehydrated dimer: around 7.5 minutes; EGT: around 8.7 minutes.

The subject of data set [2] is mouse bone marrow-derived macrophages. The note with it: cited from earlier work; for production of cytokines (IL-6, IL-12p40, IL-1β, IL-10): toll-like receptor ligand stimulation.
For another data set, the system named is OT-II CD4+ T cells. The settings on record: 30 mM EGT; co-culture with F4/80 macrophages; cited from earlier work.
The subject of the next data set is Escherichia coli. The note with it: EGT at 5 mM and 50 mM; cited from earlier work.

For `N[C@@H](CCSC1O[C@H](CO)[C@@H](O)[C@H]1O)C(=O)O` (stereo partly drawn) [SRH, S-ribosylhomocysteine], in data set [1], the “HPLC area, before concentration” value is reported as 156690 and the “HPLC area, 4 days after concentration” value came out at 108189.
For `C[N+](C)(C)[C@@H](Cc1c[nH]c(=S)[nH]1)C(=O)[O-]` [EGT, N,N,N-trimethyl-L-2-thiohistidine], the “production of cytokines (IL-6, IL-12p40, IL-1β, IL-10)” value in data set [2] (1 mM EGT) is given as “not”. Moreover, in data set [2] (10 mM EGT), the “production of cytokines (IL-6, IL-12p40, IL-1β, IL-10)” value is given as “promoted”. The “concentration that activates macrophages” value in data set [2] was at least 10 mM. In addition, in the data set with OT-II CD4+ T cells, the “Th17 polarization of OT-II CD4+ T cells” value was “promoted”. Besides, the “growth of Escherichia coli” value with Escherichia coli is “suppresses the growth”. Further, in data set [1], the “HPLC area, before concentration” value came to 13959268 and the “HPLC area, 4 days after concentration” value is 14131254.
